# Reference: PubChem BioAssay (NCI)
#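 Growth conditions: 96-well plates. Treatment: test compound, 48 hours, 5 concentrations. Analysis: linear interpolation between bracketing concentrations; unreached endpoints set to highest concentration. Definition used: TGI = concentration required for complete inhibition of growth.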
# Assays:
# Test in all cases: NCI tumour cell line growth inhibition, 48 h
# [1] = tested on: A498 renal
# [2] = tested on: CCRF-CEM leukemia
# [3] = tested on: OVCAR-4 ovarian
# [4] = tested on: M19-MEL melanoma
# [5] = tested on: SF-295 CNS
# [6] = tested on: SK-OV-3 ovarian
# [7] = tested on: HCT-116 colon
# [8] = tested on: KM20L2 colon
# [9] = tested on: UO-31 renal
# [10] = tested on: SNB-78 CNS
# [11] = tested on: NCI-H23 lung
# [12] = tested on: 786-0 renal
# [13] = tested on: RPMI-8226 leukemia
# [14] = tested on: COLO 205 colon
# [15] = tested on: UACC-257 melanoma
# [16] = tested on: RXF 393 renal
# [17] = tested on: K-562 leukemia
# [18] = tested on: SK-MEL-2 melanoma
# [19] = tested on: SNB-75 CNS
# [20] = tested on: OVCAR-5 ovarian
# [21] = tested on: HOP-92 NSCLC
# [22] = tested on: HCT-15 colon
# [23] = tested on: A549 NSCLC
# [24] = tested on: DMS 114 small cell lung
# [25] = tested on: XF 498 CNS
# [26] = tested on: HOP-62 NSCLC
# [27] = tested on: MALME-3M melanoma
# [28] = tested on: DLD-1 colon
# [29] = tested on: NCI-H226 lung
# [30] = tested on: SN12C renal
# [31] = tested on: HT29 colon
# [32] = tested on: KM12 colon
# [33] = tested on: IGROV1 ovarian
# [34] = tested on: EKVX NSCLC
# [35] = tested on: SK-MEL-5 melanoma
# [36] = tested on: OVCAR-3 ovarian
# [37] = tested on: OVCAR-8 ovarian
# [38] = tested on: SNB-19 CNS
# [39] = tested on: CAKI-1 renal
# [40] = tested on: SF-539 CNS
# [41] = tested on: M14 melanoma
# [42] = tested on: NCI-H460 lung
# [43] = tested on: HCC-2998 colon
# [44] = tested on: MOLT-4 leukemia
# [45] = tested on: SF-268 CNS
# [46] = tested on: TK-10 renal
# [47] = tested on: U251 CNS
# [48] = tested on: SK-MEL-28 melanoma
# [49] = tested on: ACHN renal
# [50] = tested on: HL-60(TB) leukemia
# [51] = tested on: SR leukemia
# [52] = tested on: DMS 273 small cell lung
# [53] = tested on: UACC-62 melanoma
# [54] = tested on: SW-620 colon
# [55] = tested on: HOP-18 NSCLC
# [56] = tested on: NCI-H522 lung
# [57] = tested on: LOX IMVI melanoma
# [58] = tested on: SN12K1 renal
# [59] = tested on: P388/ADR leukemia
# [60] = tested on: P388 leukemia
# [61] = tested on: MCF7 breast
# [62] = tested on: NCI/ADR-RES ovarian
compound,measurement,setting,value
c1ccc(-c2[nH]c(-c3ccccc3)c(-c3cnccn3)c2-c2cnccn2)cc1,TGI,[1],> 100 µM
same,TGI,[2],> 100 µM
same,TGI,[3],> 100 µM
same,TGI,[4],> 100 µM
same,TGI,[5],> 100 µM
same,TGI,[6],> 100 µM
same,TGI,[7],> 100 µM
same,TGI,[8],> 100 µM
same,TGI,[9],> 100 µM
same,TGI,[10],> 100 µM
same,TGI,[11],> 100 µM
same,TGI,[12],> 100 µM
same,TGI,[13],> 100 µM
same,TGI,[14],> 100 µM
same,TGI,[15],> 100 µM
same,TGI,[16],> 100 µM
same,TGI,[17],> 100 µM
same,TGI,[18],> 100 µM
same,TGI,[19],> 100 µM
same,TGI,[20],> 100 µM
same,TGI,[21],> 100 µM
same,TGI,[22],> 100 µM
same,TGI,[23],> 100 µM
same,TGI,[24],> 100 µM
same,TGI,[25],> 100 µM
same,TGI,[26],> 100 µM
same,TGI,[27],> 100 µM
same,TGI,[28],> 100 µM
same,TGI,[29],> 100 µM
same,TGI,[30],> 100 µM
same,TGI,[31],> 100 µM
same,TGI,[32],> 100 µM
same,TGI,[33],> 100 µM
same,TGI,[34],> 100 µM
same,TGI,[35],> 100 µM
same,TGI,[36],> 100 µM
same,TGI,[37],> 100 µM
same,TGI,[38],> 100 µM
same,TGI,[39],> 100 µM
same,TGI,[40],> 100 µM
same,TGI,[41],> 100 µM
same,TGI,[42],> 100 µM
same,TGI,[43],> 100 µM
same,TGI,[44],> 100 µM
same,TGI,[45],> 100 µM
same,TGI,[46],> 100 µM
same,TGI,[47],> 100 µM
same,TGI,[48],> 100 µM
same,TGI,[49],> 100 µM
same,TGI,[50],> 100 µM
same,TGI,[51],> 100 µM
same,TGI,[52],> 100 µM
same,TGI,[53],> 100 µM
same,TGI,[54],> 100 µM
same,TGI,[55],> 100 µM
same,TGI,[56],> 100 µM
same,TGI,[57],> 100 µM
CCCCCCc1cn([C@H]2C[C@H](O)[C@@H](CO)O2)c(=O)[nH]c1=O,TGI,[1],> 100 µM
same,TGI,[2],> 100 µM
same,TGI,[3],> 100 µM
same,TGI,[4],> 100 µM
same,TGI,[5],> 31.6 µM
same,TGI,[7],> 100 µM
same,TGI,[8],> 100 µM
same,TGI,[9],> 100 µM
same,TGI,[10],> 100 µM
same,TGI,[11],> 100 µM
same,TGI,[58],> 100 µM
same,TGI,[13],> 100 µM
same,TGI,[15],> 100 µM
same,TGI,[16],> 100 µM
same,TGI,[17],> 100 µM
same,TGI,[18],> 100 µM
same,TGI,[19],> 100 µM
same,TGI,[20],> 100 µM
same,TGI,[21],> 100 µM
same,TGI,[22],> 100 µM
same,TGI,[23],> 100 µM
same,TGI,[59],> 100 µM
same,TGI,[24],> 100 µM
same,TGI,[25],> 100 µM
same,TGI,[27],> 100 µM
same,TGI,[28],> 100 µM
same,TGI,[29],> 100 µM
same,TGI,[30],> 100 µM
same,TGI,[31],> 100 µM
same,TGI,[32],> 100 µM
same,TGI,[60],> 100 µM
same,TGI,[33],> 100 µM
same,TGI,[34],> 100 µM
same,TGI,[61],> 100 µM
same,TGI,[35],> 100 µM
same,TGI,[36],> 100 µM
same,TGI,[37],> 100 µM
same,TGI,[38],> 100 µM
same,TGI,[39],> 100 µM
same,TGI,[40],> 100 µM
same,TGI,[42],> 100 µM
same,TGI,[43],> 100 µM
same,TGI,[45],> 100 µM
same,TGI,[47],> 100 µM
same,TGI,[48],> 100 µM
same,TGI,[50],> 100 µM
same,TGI,[52],> 100 µM
same,TGI,[62],> 100 µM
same,TGI,[53],> 31.6 µM
same,TGI,[54],> 100 µM
same,TGI,[55],> 100 µM
same,TGI,[56],> 100 µM
same,TGI,[57],> 100 µM
